{"source": "paper PMC6407913", "about": "“DREADD Agonist 21 Is an Effective Agonist for Muscarinic-Based DREADDs in Vitro and in Vivo” (ACS Pharmacology & Translational Science, 2018)", "key": {"[1]": {"biological_target": "T1, 318 nonolfactory human GPCRs (Homo sapiens, UniProt Q9HBX9)", "T1 construct": "expressed in transfected cells; host or cells: HTLA cells, transient", "assay_type": "cell-based", "conditions": "RXFP1; C21 5 µM"}, "[2]": {"biological_target": "T2, 318 nonolfactory human GPCRs (Homo sapiens, UniProt P50052)", "T2 construct": "expressed in transfected cells; host or cells: HTLA cells, transient", "assay_type": "cell-based", "conditions": "AGTR2; C21 5 µM"}, "[3]": {"biological_target": "T3, 318 nonolfactory human GPCRs (Homo sapiens, UniProt P04201)", "T3 construct": "expressed in transfected cells; host or cells: HTLA cells, transient", "assay_type": "cell-based", "conditions": "MAS1; C21 5 µM"}, "[4]": {"biological_target": "T4, 318 nonolfactory human GPCRs (Homo sapiens, UniProt Q9BY21)", "T4 construct": "expressed in transfected cells; host or cells: HTLA cells, transient", "assay_type": "cell-based", "conditions": "GPR87; C21 5 µM"}, "[5]": {"biological_target": "T5, 318 nonolfactory human GPCRs (Homo sapiens, UniProt Q8NFJ6)", "T5 construct": "expressed in transfected cells; host or cells: HTLA cells, transient", "assay_type": "cell-based", "conditions": "PK2; C21 5 µM"}, "[6]": {"biological_target": "T6, 318 nonolfactory human GPCRs (Homo sapiens, UniProt Q96P66)", "T6 construct": "expressed in transfected cells; host or cells: HTLA cells, transient", "assay_type": "cell-based", "conditions": "GPR101; C21 5 µM"}, "[7]": {"biological_target": "T7, 318 nonolfactory human GPCRs (Homo sapiens, UniProt Q15077)", "T7 construct": "expressed in transfected cells; host or cells: HTLA cells, transient", "assay_type": "cell-based", "conditions": "P2RY6; C21 5 µM"}, "[8]": {"biological_target": "T8, 318 nonolfactory human GPCRs (Homo sapiens, UniProt Q96LB1)", "T8 construct": "expressed in transfected cells; host or cells: HTLA cells, transient", "assay_type": "cell-based", "conditions": "MRGPRX2; C21 5 µM"}, "[9]": {"biological_target": "T9, 318 nonolfactory human GPCRs (Homo sapiens, UniProt P30518)", "T9 construct": "expressed in transfected cells; host or cells: HTLA cells, transient", "assay_type": "cell-based", "conditions": "AVPR2; C21 5 µM"}, "[10]": {"biological_target": "T10, 318 nonolfactory human GPCRs (Homo sapiens, UniProt P35410)", "T10 construct": "expressed in transfected cells; host or cells: HTLA cells, transient", "assay_type": "cell-based", "conditions": "MAS1L; C21 5 µM"}, "[11]": {"biological_target": "T11, 318 nonolfactory human GPCRs (Homo sapiens, UniProt P46091)", "T11 construct": "expressed in transfected cells; host or cells: HTLA cells, transient", "assay_type": "cell-based", "conditions": "GPR1; C21 5 µM"}, "[12]": {"biological_target": "T12, 318 nonolfactory human GPCRs (Homo sapiens, UniProt P32248)", "T12 construct": "expressed in transfected cells; host or cells: HTLA cells, transient", "T12 sequence (P32248 25-378)": "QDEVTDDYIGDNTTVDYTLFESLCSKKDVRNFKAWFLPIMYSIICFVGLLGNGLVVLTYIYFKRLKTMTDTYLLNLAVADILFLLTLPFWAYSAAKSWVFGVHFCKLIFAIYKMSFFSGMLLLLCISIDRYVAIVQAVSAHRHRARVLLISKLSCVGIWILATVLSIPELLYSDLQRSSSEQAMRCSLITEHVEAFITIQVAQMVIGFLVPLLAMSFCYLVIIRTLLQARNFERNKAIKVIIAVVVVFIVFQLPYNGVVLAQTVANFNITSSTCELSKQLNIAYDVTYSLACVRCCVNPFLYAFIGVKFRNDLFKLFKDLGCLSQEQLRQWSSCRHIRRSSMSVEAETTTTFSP", "assay_type": "cell-based", "conditions": "CCR7; C21 5 µM"}, "[13]": {"biological_target": "T13, 318 nonolfactory human GPCRs (Homo sapiens, UniProt P46095)", "T13 construct": "expressed in transfected cells; host or cells: HTLA cells, transient", "assay_type": "cell-based", "conditions": "GPR6; C21 5 µM"}, "[14]": {"biological_target": "318 nonolfactory human GPCRs (Homo sapiens, UniProt P28335, I156V/I160V)", "assay_type": "cell-based", "conditions": "HTR2C VNV; C21 5 µM"}, "[15]": {"biological_target": "T14, 318 nonolfactory human GPCRs (Homo sapiens, UniProt P28222)", "T14 construct": "expressed in transfected cells; host or cells: HTLA cells, transient", "T14 sequence (P28222 whole entry)": "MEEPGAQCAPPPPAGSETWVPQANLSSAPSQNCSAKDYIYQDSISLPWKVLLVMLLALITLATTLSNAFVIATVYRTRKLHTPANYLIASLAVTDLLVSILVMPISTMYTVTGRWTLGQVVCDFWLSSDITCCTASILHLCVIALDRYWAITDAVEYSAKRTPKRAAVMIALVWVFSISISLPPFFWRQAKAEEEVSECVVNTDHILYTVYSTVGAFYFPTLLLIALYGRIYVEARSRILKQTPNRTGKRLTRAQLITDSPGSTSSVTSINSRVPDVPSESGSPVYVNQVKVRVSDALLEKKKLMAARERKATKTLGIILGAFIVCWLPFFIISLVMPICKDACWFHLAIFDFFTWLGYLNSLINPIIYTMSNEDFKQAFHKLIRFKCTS", "assay_type": "cell-based", "conditions": "HTR1B; C21 5 µM"}, "[16]": {"biological_target": "T15, 318 nonolfactory human GPCRs (Homo sapiens, UniProt P34998)", "T15 construct": "expressed in transfected cells; host or cells: HTLA cells, transient", "T15 sequence (P34998 24-415)": "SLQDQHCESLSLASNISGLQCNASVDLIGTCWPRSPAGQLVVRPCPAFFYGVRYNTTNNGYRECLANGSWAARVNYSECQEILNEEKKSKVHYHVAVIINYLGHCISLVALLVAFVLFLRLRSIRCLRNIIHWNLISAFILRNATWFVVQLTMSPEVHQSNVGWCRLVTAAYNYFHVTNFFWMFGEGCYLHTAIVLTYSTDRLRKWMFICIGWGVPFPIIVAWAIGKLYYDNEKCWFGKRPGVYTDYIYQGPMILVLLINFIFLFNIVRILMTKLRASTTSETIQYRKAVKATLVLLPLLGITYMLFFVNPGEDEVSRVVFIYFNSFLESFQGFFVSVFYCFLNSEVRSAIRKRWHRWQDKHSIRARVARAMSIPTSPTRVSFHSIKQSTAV", "assay_type": "cell-based", "conditions": "CRHR1; C21 5 µM"}, "[17]": {"biological_target": "T16, 318 nonolfactory human GPCRs (Homo sapiens, UniProt Q14439)", "T16 construct": "expressed in transfected cells; host or cells: HTLA cells, transient", "T16 sequence (Q14439 whole entry)": "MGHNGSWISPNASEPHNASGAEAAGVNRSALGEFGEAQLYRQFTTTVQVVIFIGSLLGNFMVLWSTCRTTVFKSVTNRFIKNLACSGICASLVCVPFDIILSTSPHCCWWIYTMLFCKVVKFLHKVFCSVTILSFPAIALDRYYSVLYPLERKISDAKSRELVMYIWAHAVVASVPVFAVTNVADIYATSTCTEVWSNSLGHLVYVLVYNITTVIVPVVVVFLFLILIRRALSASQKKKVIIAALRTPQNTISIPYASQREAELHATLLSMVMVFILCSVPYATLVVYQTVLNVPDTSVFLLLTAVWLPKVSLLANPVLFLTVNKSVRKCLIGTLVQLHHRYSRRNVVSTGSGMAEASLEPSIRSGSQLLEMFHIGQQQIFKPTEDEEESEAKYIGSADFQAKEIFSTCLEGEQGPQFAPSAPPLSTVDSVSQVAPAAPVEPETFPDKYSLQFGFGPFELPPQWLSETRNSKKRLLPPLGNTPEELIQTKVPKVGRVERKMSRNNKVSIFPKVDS", "assay_type": "cell-based", "conditions": "GPR176; C21 5 µM"}, "[18]": {"biological_target": "318 nonolfactory human GPCRs (Homo sapiens, UniProt P21462)", "sequence (P21462 whole entry)": "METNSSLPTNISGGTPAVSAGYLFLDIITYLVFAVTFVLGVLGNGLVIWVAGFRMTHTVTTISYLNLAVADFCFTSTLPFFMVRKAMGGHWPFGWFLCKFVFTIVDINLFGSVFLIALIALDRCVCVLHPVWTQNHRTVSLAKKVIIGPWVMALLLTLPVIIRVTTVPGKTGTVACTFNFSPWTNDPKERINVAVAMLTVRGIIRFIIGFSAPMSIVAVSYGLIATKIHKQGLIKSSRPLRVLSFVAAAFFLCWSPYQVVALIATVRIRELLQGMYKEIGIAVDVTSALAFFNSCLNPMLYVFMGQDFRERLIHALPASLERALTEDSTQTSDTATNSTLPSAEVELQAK", "assay_type": "cell-based", "conditions": "FPR1; C21 5 µM"}, "[19]": {"biological_target": "318 nonolfactory human GPCRs (Homo sapiens, UniProt P61073)", "sequence (P61073 whole entry)": "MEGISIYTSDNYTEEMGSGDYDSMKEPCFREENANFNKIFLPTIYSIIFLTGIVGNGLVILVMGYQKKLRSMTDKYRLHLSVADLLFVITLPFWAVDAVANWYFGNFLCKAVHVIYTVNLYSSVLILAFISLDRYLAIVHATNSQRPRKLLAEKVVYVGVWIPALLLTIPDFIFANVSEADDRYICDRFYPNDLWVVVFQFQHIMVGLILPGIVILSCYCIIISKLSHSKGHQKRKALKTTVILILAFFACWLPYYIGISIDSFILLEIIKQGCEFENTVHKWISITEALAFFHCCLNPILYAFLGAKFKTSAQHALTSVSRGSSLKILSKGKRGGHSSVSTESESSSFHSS", "assay_type": "cell-based", "conditions": "CXCR4; C21 5 µM"}, "[20]": {"biological_target": "T17, 318 nonolfactory human GPCRs (Homo sapiens, UniProt Q15391)", "T17 construct": "expressed in transfected cells; host or cells: HTLA cells, transient", "T17 sequence (Q15391 whole entry)": "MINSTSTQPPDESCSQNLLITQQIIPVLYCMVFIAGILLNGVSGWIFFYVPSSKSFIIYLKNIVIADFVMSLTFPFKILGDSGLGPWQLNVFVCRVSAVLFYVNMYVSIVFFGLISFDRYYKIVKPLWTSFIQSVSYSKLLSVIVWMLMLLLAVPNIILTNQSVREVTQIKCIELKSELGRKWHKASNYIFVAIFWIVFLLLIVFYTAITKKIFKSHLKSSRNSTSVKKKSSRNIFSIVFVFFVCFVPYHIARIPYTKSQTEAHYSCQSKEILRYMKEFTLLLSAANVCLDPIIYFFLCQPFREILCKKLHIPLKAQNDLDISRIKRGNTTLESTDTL", "assay_type": "cell-based", "conditions": "P2RY14; C21 5 µM"}, "hM3Dq in LH-vGAT neurons": {"tested_on": "hM3Dq in LH-vGAT neurons", "experiment": "food intake, hM3Dq in LH-vGAT neurons", "assay_type": "in vivo, mice", "conditions": "0.3, 1.0, 3.0 mg/kg"}, "plasma protein binding": {"experiment": "plasma protein binding", "assay_type": "in vitro ADME"}, "Alpha2C": {"biological_target": "T18, Alpha2C (Homo sapiens, UniProt P18825)", "T18 construct": "NIMH PDSP", "T18 sequence (P18825 whole entry)": "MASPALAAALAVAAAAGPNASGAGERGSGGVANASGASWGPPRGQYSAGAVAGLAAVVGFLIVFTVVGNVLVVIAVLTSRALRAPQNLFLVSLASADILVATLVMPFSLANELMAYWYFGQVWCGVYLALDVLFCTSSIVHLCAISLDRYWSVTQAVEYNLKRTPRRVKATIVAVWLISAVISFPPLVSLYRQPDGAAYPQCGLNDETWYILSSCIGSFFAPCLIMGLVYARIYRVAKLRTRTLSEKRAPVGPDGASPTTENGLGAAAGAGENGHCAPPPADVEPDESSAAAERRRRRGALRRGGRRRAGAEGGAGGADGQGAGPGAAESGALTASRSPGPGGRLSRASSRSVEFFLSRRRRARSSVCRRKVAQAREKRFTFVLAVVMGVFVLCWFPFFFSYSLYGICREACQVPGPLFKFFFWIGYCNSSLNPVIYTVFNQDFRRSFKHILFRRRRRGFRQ", "experiment": "NIMH PDSP radioligand binding, membranes", "procedure": "(§1) Radioligand binding assays with membrane preparations to determine binding affinity were carried out as outlined before[540] and by the National Institute of Mental Health’s Psychoactive Drug Screening Program (NIMH PDSP) (https://pdsp.unc.edu/), Contract # HHSN-271–2013–00017-C. The NIMH PDSP is Directed by B.L.R. at the University of North Carolina at Chapel Hill, Chapel Hill, NC, and Project Officer Jamie Driscoll at NIMH, Bethesda, MD."}, "5-HT3": {"biological_target": "5-HT3 (Homo sapiens, UniProt P46098)", "sequence (P46098 24-478, species assumed)": "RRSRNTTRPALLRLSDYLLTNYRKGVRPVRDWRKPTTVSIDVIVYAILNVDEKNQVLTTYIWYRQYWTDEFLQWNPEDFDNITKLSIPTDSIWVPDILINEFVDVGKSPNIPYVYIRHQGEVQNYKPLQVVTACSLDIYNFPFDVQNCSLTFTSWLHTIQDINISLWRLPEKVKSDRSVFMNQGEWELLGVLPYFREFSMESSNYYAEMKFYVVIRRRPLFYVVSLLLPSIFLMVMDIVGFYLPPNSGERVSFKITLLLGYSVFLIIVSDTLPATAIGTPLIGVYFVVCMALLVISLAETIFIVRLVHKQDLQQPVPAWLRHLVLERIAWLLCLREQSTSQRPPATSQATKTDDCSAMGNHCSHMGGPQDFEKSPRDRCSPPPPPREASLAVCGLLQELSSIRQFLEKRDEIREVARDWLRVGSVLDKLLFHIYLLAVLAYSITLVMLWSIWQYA", "experiment": "NIMH PDSP radioligand binding, membranes", "procedure": "as §1"}, "Alpha2A": {"biological_target": "T19, Alpha2A (Homo sapiens, UniProt P08913)", "T19 construct": "NIMH PDSP", "T19 sequence (P08913 whole entry)": "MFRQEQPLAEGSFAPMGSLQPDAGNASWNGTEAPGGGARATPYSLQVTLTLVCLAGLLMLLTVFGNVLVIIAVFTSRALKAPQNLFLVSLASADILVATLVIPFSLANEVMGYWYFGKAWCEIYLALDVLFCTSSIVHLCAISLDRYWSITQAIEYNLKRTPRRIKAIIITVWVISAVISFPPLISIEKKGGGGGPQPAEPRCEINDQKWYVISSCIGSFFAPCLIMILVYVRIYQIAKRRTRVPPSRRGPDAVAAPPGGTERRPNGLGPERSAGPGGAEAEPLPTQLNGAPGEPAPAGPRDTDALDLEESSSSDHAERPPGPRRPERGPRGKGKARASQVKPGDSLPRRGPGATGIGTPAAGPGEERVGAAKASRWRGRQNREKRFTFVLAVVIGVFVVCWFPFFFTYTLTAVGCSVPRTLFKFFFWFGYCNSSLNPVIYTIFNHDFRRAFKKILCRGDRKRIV", "experiment": "NIMH PDSP radioligand binding, membranes", "procedure": "as §1"}, "D4": {"biological_target": "D4 (Homo sapiens, UniProt P21917)", "sequence (P21917 whole entry)": "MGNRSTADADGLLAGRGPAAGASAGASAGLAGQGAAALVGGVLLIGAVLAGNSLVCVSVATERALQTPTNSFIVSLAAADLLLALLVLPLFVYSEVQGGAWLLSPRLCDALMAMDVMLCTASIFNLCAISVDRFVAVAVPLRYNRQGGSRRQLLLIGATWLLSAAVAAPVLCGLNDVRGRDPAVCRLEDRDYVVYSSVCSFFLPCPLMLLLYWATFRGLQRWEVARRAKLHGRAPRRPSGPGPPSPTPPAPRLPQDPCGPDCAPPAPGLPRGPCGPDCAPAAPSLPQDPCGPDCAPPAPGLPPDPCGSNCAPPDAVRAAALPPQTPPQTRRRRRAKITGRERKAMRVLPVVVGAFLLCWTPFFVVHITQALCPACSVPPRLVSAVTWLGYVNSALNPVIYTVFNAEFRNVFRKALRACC", "experiment": "NIMH PDSP radioligand binding, membranes", "procedure": "as §1"}, "5-HT2C": {"biological_target": "T20, 5-HT2C (Homo sapiens, UniProt P28335)", "T20 sequence (P28335 33-458)": "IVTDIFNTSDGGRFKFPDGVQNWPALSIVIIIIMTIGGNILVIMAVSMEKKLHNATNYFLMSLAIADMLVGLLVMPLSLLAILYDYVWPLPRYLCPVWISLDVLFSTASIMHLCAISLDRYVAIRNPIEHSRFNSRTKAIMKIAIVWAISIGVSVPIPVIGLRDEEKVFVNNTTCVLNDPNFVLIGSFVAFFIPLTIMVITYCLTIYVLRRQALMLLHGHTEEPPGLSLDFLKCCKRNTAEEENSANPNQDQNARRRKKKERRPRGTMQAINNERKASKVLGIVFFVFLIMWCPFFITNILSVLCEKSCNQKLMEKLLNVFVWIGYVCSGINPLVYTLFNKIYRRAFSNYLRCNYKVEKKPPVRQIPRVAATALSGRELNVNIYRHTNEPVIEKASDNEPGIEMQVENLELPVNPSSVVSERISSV", "experiment": "NIMH PDSP radioligand binding, membranes", "procedure": "as §1"}, "H4": {"biological_target": "H4 (Homo sapiens, UniProt Q9H3N8)", "sequence (Q9H3N8 whole entry)": "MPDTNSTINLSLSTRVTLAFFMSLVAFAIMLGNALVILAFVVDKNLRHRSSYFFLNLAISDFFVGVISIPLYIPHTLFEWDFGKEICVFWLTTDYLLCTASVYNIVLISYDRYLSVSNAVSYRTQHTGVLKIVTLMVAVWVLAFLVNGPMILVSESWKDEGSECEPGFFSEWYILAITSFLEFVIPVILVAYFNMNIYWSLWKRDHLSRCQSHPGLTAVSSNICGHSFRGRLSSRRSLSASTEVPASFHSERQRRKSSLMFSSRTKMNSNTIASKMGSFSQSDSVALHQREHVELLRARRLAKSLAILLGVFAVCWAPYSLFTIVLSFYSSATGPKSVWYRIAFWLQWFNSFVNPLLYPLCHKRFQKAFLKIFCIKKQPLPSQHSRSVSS", "experiment": "NIMH PDSP radioligand binding, membranes", "procedure": "as §1"}, "[21]": {"conditions": "read-out: Ki #1-#5 (individual assays)"}}, "note": "Several values for one entry are separate records, joined by “and”; a condition that tells them apart may be missing. Equal entries are not always repeated. Where two headings read alike, the source gives them in different places."}
{"smiles": "c1ccc2c(c1)N=C(N1CCNCC1)c1ccccc1N2", "note": "[C21, 11-(1-piperazinyl)-5H-dibenzo[b,e][1,4]diazepine]", "values": [{"measurement": "FOLD OVER BASAL", "setting": "[1]", "result": "0.4 fold and 0.6 fold"}, {"measurement": "FOLD OVER BASAL", "setting": "[2]", "result": "1.1 fold and 0.9 fold and 1 fold"}, {"measurement": "FOLD OVER BASAL", "setting": "[3]", "result": "1.1 fold and 0.9 fold and 1 fold"}, {"measurement": "FOLD OVER BASAL", "setting": "[4]", "result": "0.9 fold and 0.8 fold and 1 fold"}, {"measurement": "FOLD OVER BASAL", "setting": "[5]", "result": "0.9 fold and 1 fold and 1.1 fold and 1.3 fold"}, {"measurement": "FOLD OVER BASAL", "setting": "[6]", "result": "1.2 fold and 1 fold and 0.9 fold"}, {"measurement": "FOLD OVER BASAL", "setting": "[7]", "result": "1.4 fold and 0.8 fold and 1.3 fold"}, {"measurement": "FOLD OVER BASAL", "setting": "[8]", "result": "1.3 fold and 1.6 fold and 1.5 fold"}, {"measurement": "FOLD OVER BASAL", "setting": "[9]", "result": "1.1 fold and 1.2 fold"}, {"measurement": "FOLD OVER BASAL", "setting": "[10]", "result": "0.6 fold and 1 fold"}, {"measurement": "FOLD OVER BASAL", "setting": "[11]", "result": "1.1 fold and 1.4 fold and 0.8 fold and 1 fold"}, {"measurement": "FOLD OVER BASAL", "setting": "[12]", "result": "1.6 fold and 0.9 fold and 0.8 fold"}, {"measurement": "FOLD OVER BASAL", "setting": "[13]", "result": "0.9 fold and 1.3 fold and 1 fold and 1.2 fold"}, {"measurement": "FOLD OVER BASAL", "setting": "[14]", "result": "0.4 fold and 0.3 fold"}, {"measurement": "FOLD OVER BASAL", "setting": "[15]", "result": "0.7 fold and 0.8 fold and 0.9 fold"}, {"measurement": "FOLD OVER BASAL", "setting": "[16]", "result": "1.8 fold and 0.9 fold and 1.1 fold and 1.2 fold"}, {"measurement": "FOLD OVER BASAL", "setting": "[17]", "result": "0.3 fold and 0.6 fold and 0.5 fold and 0.4 fold"}, {"measurement": "FOLD OVER BASAL", "setting": "[18]", "result": "0.9 fold and 0.7 fold and 0.6 fold"}, {"measurement": "FOLD OVER BASAL", "setting": "[19]", "result": "0.7 fold and 1 fold and 0.9 fold"}, {"measurement": "FOLD OVER BASAL", "setting": "[20]", "result": "0.9 fold and 0.7 fold and 1.1 fold and 0.8 fold"}, {"measurement": "food intake", "setting": "hM3Dq in LH-vGAT neurons", "result": "drives feeding in a dose-dependent fashion"}, {"measurement": "fraction unbound", "setting": "plasma protein binding", "result": 0.049}, {"measurement": "Ki", "setting": "Alpha2C; read-out: Ki", "result": 1690, "unit": "nM"}, {"measurement": "Ki", "setting": "Alpha2C; [21]", "result": "1860 nM and 936 nM and 2770 nM"}, {"measurement": "Ki", "setting": "5-HT3; read-out: Ki", "result": 360, "unit": "nM"}, {"measurement": "Ki", "setting": "5-HT3; [21]", "result": "858 nM and 321 nM and 169 nM"}, {"measurement": "Ki", "setting": "Alpha2A; read-out: Ki", "result": 1770, "unit": "nM"}, {"measurement": "Ki", "setting": "Alpha2A; [21]", "result": "4750 nM and 809 nM and 1440 nM"}, {"measurement": "Ki", "setting": "D4; read-out: Ki", "result": 2050, "unit": "nM"}, {"measurement": "Ki", "setting": "D4; [21]", "result": "1380 nM and 896 nM and 4050 nM and 3570 nM"}, {"measurement": "Ki", "setting": "5-HT2C; read-out: Ki", "result": 47.9, "unit": "nM"}, {"measurement": "Ki", "setting": "5-HT2C; [21]", "result": "48.2 nM and 57 nM"}, {"measurement": "Ki", "setting": "5-HT2C; read-out: log Ki (individual assays) (converted)", "result": 39.8, "unit": "nM"}, {"measurement": "Ki", "setting": "H4; read-out: Ki", "result": "> 10000", "unit": "nM"}, {"measurement": "Ki", "setting": "H4; [21]", "result": "> 10000", "unit": "nM"}, {"measurement": "Ki", "setting": "H4; read-out: pKi (mean) (converted)", "result": "> 10000", "unit": "nM"}]}
